Test results as given in PubChem BioAssay AID1919002 (Molecular Pharmacology Branch, DTP, NCI, 2023).

Test system: 743489-274-T-PDC complex spheroid growth
Test: Anticancer human tumor 743489-274-T-PDC patient-derived renal cell carcinoma cell line growth inhibition [AhR]
Settings: for IC50: curve of first compound; for viability, T/C: stronger effect = lower value; active = viability on the fitted dose curve at most 10% of control; inactive = the rest
In short: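 Agents were dosed in half-log steps down from roughly clinical Cmax, or from 10 microM where Cmax was unknown, alone and with AhR antagonists. Read-out: percent test/control growth of tumor spheroids containing HUVEC and MSC stromal cells.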

[1] = second compound 0.1 µM, first compound 0.0316 µM
[2] = second compound 0.1 µM, first compound 0.1 µM
[3] = second compound 0.1 µM, first compound 0.316 µM
[4] = second compound 0.1 µM, first compound 1 µM
[5] = second compound 0.1 µM, first compound 3.16 µM
[6] = second compound 0.1 µM, first compound 10 µM
[7] = second compound 0.316 µM, first compound 0.0316 µM
[8] = second compound 0.316 µM, first compound 0.1 µM
[9] = second compound 0.316 µM, first compound 0.316 µM
[10] = second compound 0.316 µM, first compound 1 µM
[11] = second compound 0.316 µM, first compound 3.16 µM
[12] = second compound 0.316 µM, first compound 10 µM
[13] = second compound 1 µM, first compound 0.0316 µM
[14] = second compound 1 µM, first compound 0.1 µM
[15] = second compound 1 µM, first compound 0.316 µM
[16] = second compound 1 µM, first compound 1 µM
[17] = second compound 1 µM, first compound 3.16 µM
[18] = second compound 1 µM, first compound 10 µM
[19] = second compound 3.16 µM, first compound 0.0316 µM
[20] = second compound 3.16 µM, first compound 0.1 µM
[21] = second compound 3.16 µM, first compound 0.316 µM
[22] = second compound 3.16 µM, first compound 1 µM
[23] = second compound 3.16 µM, first compound 3.16 µM
[24] = second compound 3.16 µM, first compound 10 µM
[25] = second compound 10 µM, first compound 0.0316 µM
[26] = second compound 10 µM, first compound 0.1 µM
[27] = second compound 10 µM, first compound 0.316 µM
[28] = second compound 10 µM, first compound 1 µM
[29] = second compound 10 µM, first compound 3.16 µM
[30] = second compound 10 µM, first compound 10 µM
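Also: spheroids exposed to agents for 7 days before readout.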
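For viability, T/C in this document: 100% = DMSO vehicle control wells.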

CC1(C)CCC(CN2CCN(c3ccc(C(=O)NS(=O)(=O)c4ccc(NCC5CCOCC5)c([N+](=O)[O-])c4)c(Oc4cnc5[nH]ccc5c4)c3)CC2)=C(c2ccc(Cl)cc2)C1 + Cc1cncc(-c2nc(NCCc3c[nH]c4ccccc34)c3ncn(C(C)C)c3n2)c1
> 10 µM: IC50 (second compound 0.1 µM) | IC50 (second compound 0.316 µM) | IC50 (second compound 1 µM) | IC50 (second compound 3.16 µM) | IC50 (second compound 10 µM)
inactive: viability, T/C [1] 103% | viability, T/C [2] 105% | viability, T/C [3] 107% | viability, T/C [4] 106% | viability, T/C [5] 99.5% | viability, T/C [6] 113% | viability, T/C [7] 98.5% | viability, T/C [8] 110% | viability, T/C [9] 106% | viability, T/C [10] 104% | viability, T/C [11] 104% | viability, T/C [12] 123% | viability, T/C [13] 99.4% | viability, T/C [14] 108% | viability, T/C [15] 103% | viability, T/C [16] 114% | viability, T/C [17] 133% | viability, T/C [18] 128% | viability, T/C [19] 116% | viability, T/C [20] 123% | viability, T/C [21] 119% | viability, T/C [22] 135% | viability, T/C [23] 145% | viability, T/C [24] 138% | viability, T/C [25] 106% | viability, T/C [26] 111% | viability, T/C [27] 112% | viability, T/C [28] 133% | viability, T/C [29] 151% | viability, T/C [30] 227%

CCN(c1cc(-c2ccc(CN3CCOCC3)cc2)cc(C(=O)NCc2c(C)cc(C)[nH]c2=O)c1C)C1CCOCC1 + Cc1cncc(-c2nc(NCCc3c[nH]c4ccccc34)c3ncn(C(C)C)c3n2)c1
> 3 µM: IC50 (second compound 0.1 µM) | IC50 (second compound 0.316 µM) | IC50 (second compound 1 µM) | IC50 (second compound 3.16 µM) | IC50 (second compound 10 µM)
inactive: viability, T/C (second compound 0.1 µM, first compound 0.00949 µM) 102% | viability, T/C (second compound 0.1 µM, first compound 0.03 µM) 102% | viability, T/C (second compound 0.1 µM, first compound 0.0949 µM) 99.9% | viability, T/C (second compound 0.1 µM, first compound 0.3 µM) 91.3% | viability, T/C (second compound 0.1 µM, first compound 0.949 µM) 92.7% | viability, T/C (second compound 0.1 µM, first compound 3 µM) 94.4% | viability, T/C (second compound 0.316 µM, first compound 0.00949 µM) 94.8% | viability, T/C (second compound 0.316 µM, first compound 0.03 µM) 104% | viability, T/C (second compound 0.316 µM, first compound 0.0949 µM) 93.1% | viability, T/C (second compound 0.316 µM, first compound 0.3 µM) 88.1% | viability, T/C (second compound 0.316 µM, first compound 0.949 µM) 85.9% | viability, T/C (second compound 0.316 µM, first compound 3 µM) 94% | viability, T/C (second compound 1 µM, first compound 0.00949 µM) 99.8% | viability, T/C (second compound 1 µM, first compound 0.03 µM) 97.6% | viability, T/C (second compound 1 µM, first compound 0.0949 µM) 95.3% | viability, T/C (second compound 1 µM, first compound 0.3 µM) 93% | viability, T/C (second compound 1 µM, first compound 0.949 µM) 104% | viability, T/C (second compound 1 µM, first compound 3 µM) 101% | viability, T/C (second compound 3.16 µM, first compound 0.00949 µM) 105% | viability, T/C (second compound 3.16 µM, first compound 0.03 µM) 114% | viability, T/C (second compound 3.16 µM, first compound 0.0949 µM) 102% | viability, T/C (second compound 3.16 µM, first compound 0.3 µM) 104% | viability, T/C (second compound 3.16 µM, first compound 0.949 µM) 102% | viability, T/C (second compound 3.16 µM, first compound 3 µM) 103% | viability, T/C (second compound 10 µM, first compound 0.00949 µM) 122% | viability, T/C (second compound 10 µM, first compound 0.03 µM) 119% | viability, T/C (second compound 10 µM, first compound 0.0949 µM) 122% | viability, T/C (second compound 10 µM, first compound 0.3 µM) 128% | viability, T/C (second compound 10 µM, first compound 0.949 µM) 127% | viability, T/C (second compound 10 µM, first compound 3 µM) 122%

Cn1ncnc1C1c2n[nH]c(=O)c3cc(F)cc(c23)NC1c1ccc(F)cc1 (stereo not given) + Cc1cncc(-c2nc(NCCc3c[nH]c4ccccc34)c3ncn(C(C)C)c3n2)c1
> 0.1 µM: IC50 (second compound 0.1 µM) | IC50 (second compound 0.316 µM) | IC50 (second compound 1 µM) | IC50 (second compound 3.16 µM) | IC50 (second compound 10 µM)
inactive: viability, T/C (second compound 0.1 µM, first compound 0.000316 µM) 95.5% | viability, T/C (second compound 0.1 µM, first compound 0.001 µM) 104% | viability, T/C (second compound 0.1 µM, first compound 0.00316 µM) 90.8% | viability, T/C (second compound 0.1 µM, first compound 0.01 µM) 87.9% | viability, T/C [1] 89.6% | viability, T/C [2] 98.8% | viability, T/C (second compound 0.316 µM, first compound 0.000316 µM) 88.8% | viability, T/C (second compound 0.316 µM, first compound 0.001 µM) 91.8% | viability, T/C (second compound 0.316 µM, first compound 0.00316 µM) 96.1% | viability, T/C (second compound 0.316 µM, first compound 0.01 µM) 96.2% | viability, T/C [7] 93.3% | viability, T/C [8] 95.7% | viability, T/C (second compound 1 µM, first compound 0.000316 µM) 103% | viability, T/C (second compound 1 µM, first compound 0.001 µM) 96% | viability, T/C (second compound 1 µM, first compound 0.00316 µM) 97% | viability, T/C (second compound 1 µM, first compound 0.01 µM) 101% | viability, T/C [13] 96.7% | viability, T/C [14] 88.2% | viability, T/C (second compound 3.16 µM, first compound 0.000316 µM) 121% | viability, T/C (second compound 3.16 µM, first compound 0.001 µM) 102% | viability, T/C (second compound 3.16 µM, first compound 0.00316 µM) 99.2% | viability, T/C (second compound 3.16 µM, first compound 0.01 µM) 114% | viability, T/C [19] 99.3% | viability, T/C [20] 94.5% | viability, T/C (second compound 10 µM, first compound 0.000316 µM) 128% | viability, T/C (second compound 10 µM, first compound 0.001 µM) 117% | viability, T/C (second compound 10 µM, first compound 0.00316 µM) 139% | viability, T/C (second compound 10 µM, first compound 0.01 µM) 121% | viability, T/C [25] 111% | viability, T/C [26] 131%

NS(=O)(=O)OCC1CC(n2ccc3c(NC4CCc5ccccc54)ncnc32)CC1O (stereo not given) + Cc1cncc(-c2nc(NCCc3c[nH]c4ccccc34)c3ncn(C(C)C)c3n2)c1
inactive: viability, T/C [1] 105% | viability, T/C [2] 98.2% | viability, T/C [3] 99.8% | viability, T/C [4] 112% | viability, T/C [5] 128% | viability, T/C [6] 154% | viability, T/C [7] 93.2% | viability, T/C [8] 92.7% | viability, T/C [9] 110% | viability, T/C [10] 125% | viability, T/C [11] 136% | viability, T/C [12] 139% | viability, T/C [13] 96.8% | viability, T/C [14] 98.7% | viability, T/C [15] 116% | viability, T/C [16] 133% | viability, T/C [17] 149% | viability, T/C [18] 134% | viability, T/C [19] 119% | viability, T/C [20] 114% | viability, T/C [21] 119% | viability, T/C [22] 136% | viability, T/C [23] 152% | viability, T/C [24] 139% | viability, T/C [25] 114% | viability, T/C [26] 127% | viability, T/C [27] 106% | viability, T/C [28] 103% | viability, T/C [29] 118% | viability, T/C [30] 123%
> 10 µM: IC50 (second compound 0.1 µM) | IC50 (second compound 0.316 µM) | IC50 (second compound 1 µM) | IC50 (second compound 3.16 µM) | IC50 (second compound 10 µM)
